The results in this text go back to ChEMBL document CHEMBL4118128, “Discovery of chiral dihydropyridopyrimidinones as potent, selective and orally bioavailable inhibitors of AKT” (Bioorg Med Chem Lett, 2018).

SMILES strings stand for the structures. ≈ marks a conversion by molar mass, not a printed value. Calls of active or inactive are those of the source. No cut-off for these calls is given here. Bounds are passed on as bounds.

Data set [1] can be described thus: Lipophilicity, log P of the compound. In kind it is physicochemical. As to conditions: octanol/water.
Data set [2] in a line: Aqueous solubility in pH 7.4 buffer. In kind it is physicochemical.
Data set [3] addresses Voltage-gated inwardly rectifying potassium channel KCNH2 (Homo sapiens, UniProt Q12809). The data set is described as follows: Inhibition of human ERG.
The target of data set [4] is T1, RAC-alpha serine/threonine-protein kinase (Homo sapiens, UniProt P31749). The data set is described as follows: Inhibition of human recombinant AKT1 expressed in insect cells incubated for 60 mins measured at apparent ATP Km level by kinase ADP-FP assay.
The target in data set [5] is Ribosomal protein S6 kinase beta-1 (Homo sapiens, UniProt P23443). Description: Inhibition of human p70S6K measured at apparent ATP Km level.
Data set [6] concerns the target Rho-associated protein kinase 2 (Homo sapiens, UniProt O75116). Description: Inhibition of histidine-tagged human recombinant ROCK2 (11 to 552 residues) expressed in insect cells using RFARKGSLRQKNV substrate incubated for 60 mins measured at apparent ATP Km level by kinase ADP-FP assay.
The nature of data set [7]: Inhibition of human PKA measured at apparent ATP Km level.
The target in data set [8] is Protein kinase C beta type (Homo sapiens, UniProt P05771). The data set is described as follows: Inhibition of human PKCbeta2 measured at apparent ATP Km level.
In data set [9] the target is Ribosomal protein S6 kinase alpha-1 (Homo sapiens, UniProt Q15418). The data set is described as follows: Inhibition of human RSK1 measured at apparent ATP Km level.
Data set [10] concerns the target T1, RAC-alpha serine/threonine-protein kinase. The data set is described as follows: Inhibition of AKT1 in human U87MG cells assessed as reduction in GSK3beta Ser9 phosphorylation incubated for 1 hr by alpha screen Surefire assay. The class given is cell-based.
For a further data set, the species on record is Homo sapiens. Description: Selectivity index, ratio of IC50 for human recombinant ROCK2 (11 to 552 residues) expressed in insect cells to IC50 for human recombinant AKT1 expressed in insect cells.
A short description of data set [11]: Oral bioavailability in Sprague-Dawley rat at 5 mg/kg by LC-MS/MS method. In kind it is ADME, organism-based. To be noted: in vivo.
Data set [12] in a line: AUC (0 to 24 hrs) in Sprague-Dawley rat at 5 mg/kg, po by LC-MS/MS method. Set-up: dose 5 mg/kg, time < 24 hr, route oral. As to conditions: in vivo. In kind it is ADME, organism-based.
Data set [13] can be described thus: Clearance in Sprague-Dawley rat at 10 mg/kg, iv by LC-MS/MS method. In kind it is ADME, organism-based. To be noted: in vivo.
The subject of data set [14] is Rattus norvegicus. Description: Intrinsic unbound clearance in Sprague-Dawley rat at 10 mg/kg, iv by LC-MS/MS method. In kind it is ADME, organism-based. To be noted: in vivo.
Data set [15] is described as follows: Volume of distribution at steady state in Sprague-Dawley rat at 10 mg/kg, iv or 5 mg/kg, po by LC-MS/MS method. The class given is ADME, organism-based. To be noted: in vivo, read-out: Vdss.
The nature of data set [16]: Half life in Sprague-Dawley rat at 10 mg/kg, iv by LC-MS/MS method. In kind it is ADME, organism-based. To be noted: in vivo.
In the next data set the test system is Mus musculus. Description: Ratio of AUC (0 to 24 hrs) in P-gp and BCRP knockout mouse at 2.5 mg/kg, po to AUC (0 to 24 hrs) in wild type mouse at 2.5 mg/kg, po. The class given is ADME, organism-based. As to conditions: in vivo.
Data set [17] can be described thus: AUC (0 to 24 hrs) in wild type mouse at 2.5 mg/kg, po by LC-MS/MS method. The class given is ADME, organism-based. Set-up: time < 24 hr, dose 2.5 mg/kg, route oral. As to conditions: in vivo.
A short description of data set [18]: AUC (0 to 24 hrs) in P-gp and BCRP knockout mouse at 2.5 mg/kg, po by LC-MS/MS method. As to conditions: in vivo. Set-up: time < 24 hr, dose 2.5 mg/kg, route oral. In kind it is ADME, organism-based.
Data set [19] in a line: Cmax in wild type mouse at 2.5 mg/kg, po by LC-MS/MS method. Set-up: dose 2.5 mg/kg, route oral. In kind it is ADME, organism-based. To be noted: in vivo.
The nature of data set [20]: Cmax in P-gp and BCRP knockout mouse at 2.5 mg/kg, po by LC-MS/MS method. To be noted: in vivo. Set-up: dose 2.5 mg/kg, route oral. In kind it is ADME, organism-based.
The subject of data set [21] is U-87 MG. The data set is described as follows: Antitumor activity against human U87MG cells xenografted in rat assessed as inhibition of tumor growth at 25 to 50 mg/kg, po qd for 4 weeks. The class given is functional, organism-based. To be noted: U-87MG ATCC.
Data set [22] relates to U-87 MG. Description: Antitumor activity against human U87MG cells xenografted in rat assessed as inhibition of tumor growth at 25 mg/kg, po bid for 4 weeks. In kind it is functional, organism-based. To be noted: U-87MG ATCC.
The subject of data set [23] is Rattus norvegicus. The data set is described as follows: Toxicity in human U87MG cells xenografted rat assessed as induction of body weight loss at 25 to 50 mg/kg, po qd for 4 weeks. The class given is organism-based. As to conditions: in vivo, 672 h.
For data set [24], the system named is Rattus norvegicus. The data set is described as follows: Toxicity in human U87MG cells xenografted rat assessed as induction of body weight loss at 25 mg/kg, po bid for 4 weeks. In kind it is organism-based. As to conditions: in vivo, 672 h.

Ribosomal protein S6 kinase alpha-1, sequence (Q15418 whole entry): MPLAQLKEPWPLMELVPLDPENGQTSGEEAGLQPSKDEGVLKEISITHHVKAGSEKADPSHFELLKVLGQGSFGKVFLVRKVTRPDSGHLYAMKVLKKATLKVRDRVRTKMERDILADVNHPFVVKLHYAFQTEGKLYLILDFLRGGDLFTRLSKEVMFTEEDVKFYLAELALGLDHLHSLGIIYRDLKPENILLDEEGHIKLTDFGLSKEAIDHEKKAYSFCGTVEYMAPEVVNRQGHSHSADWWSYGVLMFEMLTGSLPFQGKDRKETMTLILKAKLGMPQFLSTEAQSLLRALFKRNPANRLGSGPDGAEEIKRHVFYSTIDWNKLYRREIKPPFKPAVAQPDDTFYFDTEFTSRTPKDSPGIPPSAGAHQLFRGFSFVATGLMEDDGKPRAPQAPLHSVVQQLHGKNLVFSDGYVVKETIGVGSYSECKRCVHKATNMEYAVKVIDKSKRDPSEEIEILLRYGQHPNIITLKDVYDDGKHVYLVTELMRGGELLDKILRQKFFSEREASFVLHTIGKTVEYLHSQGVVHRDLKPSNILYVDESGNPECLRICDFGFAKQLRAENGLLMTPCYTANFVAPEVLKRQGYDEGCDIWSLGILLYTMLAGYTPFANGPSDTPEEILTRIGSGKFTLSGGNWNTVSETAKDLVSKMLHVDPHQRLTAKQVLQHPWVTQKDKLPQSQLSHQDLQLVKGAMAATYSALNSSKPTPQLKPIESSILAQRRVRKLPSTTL
Ribosomal protein S6 kinase beta-1, sequence (P23443 whole entry, the tested form may be a part): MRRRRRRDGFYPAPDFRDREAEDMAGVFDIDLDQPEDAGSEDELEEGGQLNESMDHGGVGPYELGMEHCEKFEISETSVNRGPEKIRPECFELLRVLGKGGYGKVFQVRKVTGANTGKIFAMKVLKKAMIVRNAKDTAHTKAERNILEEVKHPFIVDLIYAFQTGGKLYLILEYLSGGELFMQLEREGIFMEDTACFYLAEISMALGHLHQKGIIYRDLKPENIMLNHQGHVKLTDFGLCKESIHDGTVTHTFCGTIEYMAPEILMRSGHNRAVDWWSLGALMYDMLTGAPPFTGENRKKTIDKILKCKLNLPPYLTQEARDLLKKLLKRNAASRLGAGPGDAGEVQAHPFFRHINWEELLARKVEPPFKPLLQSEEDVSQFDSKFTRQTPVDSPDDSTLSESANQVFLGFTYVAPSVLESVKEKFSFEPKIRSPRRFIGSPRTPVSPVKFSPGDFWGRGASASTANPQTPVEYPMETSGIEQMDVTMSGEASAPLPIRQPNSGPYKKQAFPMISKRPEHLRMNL
Protein kinase C beta type, sequence (P05771 whole entry): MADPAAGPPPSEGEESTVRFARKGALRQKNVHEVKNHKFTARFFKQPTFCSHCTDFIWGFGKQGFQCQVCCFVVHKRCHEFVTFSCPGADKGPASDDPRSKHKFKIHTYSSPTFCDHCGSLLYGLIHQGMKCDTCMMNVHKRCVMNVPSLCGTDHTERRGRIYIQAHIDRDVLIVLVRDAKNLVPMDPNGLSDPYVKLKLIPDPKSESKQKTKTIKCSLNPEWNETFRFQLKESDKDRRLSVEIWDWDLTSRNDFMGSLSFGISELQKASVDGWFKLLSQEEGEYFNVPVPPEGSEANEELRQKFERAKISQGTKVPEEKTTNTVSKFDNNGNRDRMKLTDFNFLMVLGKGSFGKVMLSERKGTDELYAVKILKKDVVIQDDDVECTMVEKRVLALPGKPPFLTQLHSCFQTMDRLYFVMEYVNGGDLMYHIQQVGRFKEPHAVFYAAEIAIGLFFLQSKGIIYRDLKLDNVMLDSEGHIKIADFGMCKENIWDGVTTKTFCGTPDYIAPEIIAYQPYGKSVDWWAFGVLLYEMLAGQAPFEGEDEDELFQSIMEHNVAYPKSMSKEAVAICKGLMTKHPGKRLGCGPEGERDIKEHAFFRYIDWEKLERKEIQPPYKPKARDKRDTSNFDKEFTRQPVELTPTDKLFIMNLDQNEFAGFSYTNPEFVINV
T1 sequence (P31749 whole entry): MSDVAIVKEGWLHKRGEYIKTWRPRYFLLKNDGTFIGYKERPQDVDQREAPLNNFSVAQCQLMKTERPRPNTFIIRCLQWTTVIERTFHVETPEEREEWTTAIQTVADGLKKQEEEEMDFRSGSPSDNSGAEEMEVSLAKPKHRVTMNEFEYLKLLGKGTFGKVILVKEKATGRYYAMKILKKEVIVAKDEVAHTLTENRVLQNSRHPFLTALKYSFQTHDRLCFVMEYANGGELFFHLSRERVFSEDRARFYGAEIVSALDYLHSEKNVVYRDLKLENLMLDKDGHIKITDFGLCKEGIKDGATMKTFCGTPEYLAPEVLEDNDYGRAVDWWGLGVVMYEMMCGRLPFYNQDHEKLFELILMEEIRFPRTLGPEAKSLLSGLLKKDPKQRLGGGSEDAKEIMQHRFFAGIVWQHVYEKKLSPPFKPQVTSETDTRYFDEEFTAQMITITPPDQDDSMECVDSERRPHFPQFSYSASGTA
Rho-associated protein kinase 2, sequence (O75116 whole entry, the tested form may be a part): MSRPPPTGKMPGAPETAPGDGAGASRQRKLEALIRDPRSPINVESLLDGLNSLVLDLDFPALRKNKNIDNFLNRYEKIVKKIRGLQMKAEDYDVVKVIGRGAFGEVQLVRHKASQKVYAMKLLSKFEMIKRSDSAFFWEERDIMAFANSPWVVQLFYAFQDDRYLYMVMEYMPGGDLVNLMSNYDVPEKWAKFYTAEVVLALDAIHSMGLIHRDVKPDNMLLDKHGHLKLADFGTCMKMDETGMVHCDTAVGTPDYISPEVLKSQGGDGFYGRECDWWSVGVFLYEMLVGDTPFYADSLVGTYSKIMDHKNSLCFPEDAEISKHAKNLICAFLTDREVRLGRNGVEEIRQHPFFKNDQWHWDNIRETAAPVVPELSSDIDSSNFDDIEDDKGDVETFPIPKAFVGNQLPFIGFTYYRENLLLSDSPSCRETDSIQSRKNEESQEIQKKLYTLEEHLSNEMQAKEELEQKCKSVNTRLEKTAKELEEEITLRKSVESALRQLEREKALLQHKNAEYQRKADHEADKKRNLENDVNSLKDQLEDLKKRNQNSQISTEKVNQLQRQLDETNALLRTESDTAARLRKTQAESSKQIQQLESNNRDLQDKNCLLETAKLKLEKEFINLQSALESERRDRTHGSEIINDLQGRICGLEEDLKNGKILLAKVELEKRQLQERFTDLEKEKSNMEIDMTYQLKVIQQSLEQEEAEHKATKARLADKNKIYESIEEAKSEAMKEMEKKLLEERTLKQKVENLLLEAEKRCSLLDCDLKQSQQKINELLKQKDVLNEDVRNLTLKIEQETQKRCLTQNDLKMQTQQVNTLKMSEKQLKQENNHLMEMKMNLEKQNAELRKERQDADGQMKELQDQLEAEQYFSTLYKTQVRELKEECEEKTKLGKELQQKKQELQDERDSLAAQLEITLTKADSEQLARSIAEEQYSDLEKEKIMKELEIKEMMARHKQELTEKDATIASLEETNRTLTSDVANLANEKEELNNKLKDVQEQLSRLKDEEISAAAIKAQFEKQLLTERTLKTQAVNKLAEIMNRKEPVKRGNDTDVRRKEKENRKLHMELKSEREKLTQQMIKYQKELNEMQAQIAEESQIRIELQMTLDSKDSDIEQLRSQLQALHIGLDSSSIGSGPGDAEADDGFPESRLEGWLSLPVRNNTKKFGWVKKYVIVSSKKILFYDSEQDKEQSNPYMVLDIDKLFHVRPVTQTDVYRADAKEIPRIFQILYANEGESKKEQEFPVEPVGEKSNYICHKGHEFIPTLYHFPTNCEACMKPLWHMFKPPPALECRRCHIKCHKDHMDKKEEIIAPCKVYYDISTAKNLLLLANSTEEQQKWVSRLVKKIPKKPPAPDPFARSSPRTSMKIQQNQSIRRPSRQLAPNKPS
Voltage-gated inwardly rectifying potassium channel KCNH2, sequence (Q12809 whole entry): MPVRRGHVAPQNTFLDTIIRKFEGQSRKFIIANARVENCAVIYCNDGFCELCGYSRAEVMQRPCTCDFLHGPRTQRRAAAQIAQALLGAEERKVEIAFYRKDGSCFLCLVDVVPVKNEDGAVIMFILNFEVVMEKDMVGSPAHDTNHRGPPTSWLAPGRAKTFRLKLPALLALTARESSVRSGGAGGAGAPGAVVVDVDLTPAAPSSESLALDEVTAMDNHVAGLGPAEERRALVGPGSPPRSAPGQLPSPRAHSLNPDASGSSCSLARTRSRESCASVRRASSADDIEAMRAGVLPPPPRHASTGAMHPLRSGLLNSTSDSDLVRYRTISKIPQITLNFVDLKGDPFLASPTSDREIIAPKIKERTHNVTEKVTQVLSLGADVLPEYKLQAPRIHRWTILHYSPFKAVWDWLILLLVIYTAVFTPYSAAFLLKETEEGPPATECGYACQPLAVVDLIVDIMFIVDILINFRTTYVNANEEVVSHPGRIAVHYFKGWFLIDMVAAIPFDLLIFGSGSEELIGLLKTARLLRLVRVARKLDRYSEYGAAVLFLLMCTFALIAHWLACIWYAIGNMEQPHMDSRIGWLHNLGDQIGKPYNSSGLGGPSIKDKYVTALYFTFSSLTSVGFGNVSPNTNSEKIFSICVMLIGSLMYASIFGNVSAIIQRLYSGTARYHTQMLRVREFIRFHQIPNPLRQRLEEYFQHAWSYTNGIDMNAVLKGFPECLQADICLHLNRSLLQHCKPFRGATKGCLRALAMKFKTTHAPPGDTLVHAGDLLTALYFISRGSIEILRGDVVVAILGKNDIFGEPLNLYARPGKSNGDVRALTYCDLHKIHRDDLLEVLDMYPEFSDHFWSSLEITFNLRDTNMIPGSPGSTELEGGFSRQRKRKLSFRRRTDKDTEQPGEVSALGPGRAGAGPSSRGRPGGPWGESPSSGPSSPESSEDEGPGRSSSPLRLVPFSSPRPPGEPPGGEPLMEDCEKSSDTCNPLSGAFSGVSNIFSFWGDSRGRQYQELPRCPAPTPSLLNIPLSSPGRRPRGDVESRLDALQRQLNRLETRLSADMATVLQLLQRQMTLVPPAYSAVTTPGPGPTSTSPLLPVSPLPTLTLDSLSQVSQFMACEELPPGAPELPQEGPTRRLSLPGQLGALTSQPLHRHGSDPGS

`C[C@@H]1CC(=O)Nc2ncnc(N3CCC(c4nc(C5CCOCC5)cn4CCN4CCCC4)CC3)c21` had a logP in data set [1] of 0.95. For the same compound, the solubility in data set [2] is above 2000 µg/mL. This compound also came in with an INH in [3] above 100 µM. The IC50 is 4 nM in data set [4]; 1900 nM in [5]; above 20 µM in data set [6]; 412 nM in data set [7]; 20 µM in [8]; 699 nM in data set [9]. For the same compound, the half-maximal inhibitory concentration (IC50) in [10] came to 230 nM. Moreover, the Ratio IC50 in the data set filed under Homo sapiens was above 1000. In addition, the bioavailability in data set [11] was found to be 14%. Besides, the AUC(0-t) at 24 h in [12] was found to be 173 ng·h/mL; in data set [17], 108 ng·h/mL; in data set [18] it was 501 ng·h/mL. In addition, the clearance in data set [13] came to 64 mL/min/kg. In the data set with Rattus norvegicus [14], the CL free came to 85 mL/min/kg. Also, the Vd in data set [15] is 13.8 L/kg. For the same compound, the half-life in data set [16] is 516 min. For the same compound, in the data set with Mus musculus, the Ratio is reported as 5. Also, the Cmax was 33 ng/mL in [19] and 189 ng/mL in [20].
`C[C@@H]1CC(=O)Nc2ncnc(N3CCC(c4nc(-c5ccc(F)c(C(F)(F)F)c5)cn4CCN4CCCC4)CC3)c21` returned a logP in data set [1] of 4.84. Besides, in data set [2], the solubility worked out at 35 µg/mL (≈ 61.2 µM). Moreover, the INH in [3] amounted to 1.74 µM. Also, the IC50 in data set [4] was 3 nM; in data set [5], 35 nM; in [6] it was above 20 µM; in [7] it was 653 nM; in data set [8], 0.036 µM; in data set [9], 20 nM. The IC50 in [10] is 39 nM. In the data set listed under Homo sapiens, the Ratio IC50 is above 1000.
For the compound `Cn1cc(-c2ccc(F)c(C(F)(F)F)c2)nc1C1CCN(c2ncnc3[nH]ncc23)CC1` [LY-2584702], in data set [5], the IC50 is 4 nM.
`C[C@@H]1CC(=O)Nc2ncnc(N3CCC(c4nc(CCC(F)(F)F)cn4CCN4CCCC4)CC3)c21` yielded a logP in data set [1] of 2.39. Further, the solubility in data set [2] was determined as 990 µg/mL (≈ 1960 µM). This compound also displayed an INH in [3] of 18.5 µM. The IC50 was 5 nM in data set [4]; 399 nM in data set [5]; above 20 µM in data set [6]; 84 nM in [7]; 3.98 µM in data set [8]; 568 nM in data set [9]. Also, the IC50 in data set [10] was found to be 92 nM. The Ratio IC50 in the data set listed under Homo sapiens was above 1000. In data set [11], the bioavailability is 55%. Besides, the AUC(0-t) at 24 h in data set [12] is 638 ng·h/mL; in data set [17], 290 ng·h/mL; in data set [18] it was 359 ng·h/mL. The clearance in [13] was 74 mL/min/kg. This compound also displayed a CL free in the data set with Rattus norvegicus [14] of 43 mL/min/kg. Moreover, in [15], the Vd was 11.6 L/kg. The half-life in data set [16] is 138 min. Also, the highest concentration (Cmax) was determined as 76 ng/mL in [19] and 109 ng/mL in data set [20]. The TGI entry in the data set with U-87 MG [21] was “Dose-dependent effect”. Also, the TGI result with U-87 MG [22] is “Active”. Besides, the Activity entry in the data set with Rattus norvegicus [23] and in the data set with Rattus norvegicus [24] was “Non-Toxic” in each case.
The compound `C[C@@H]1CC(=O)Nc2ncnc(N3CCC(c4nc(C(F)(F)F)cn4CCN4CCCC4)CC3)c21` returned a logP in data set [1] of 1.66. Further, in [2], the concentration in solution (solubility) was 1860 µg/mL (≈ 3900 µM). Besides, the INH in [3] was above 100 µM. Besides, the IC50 was 11 nM in data set [4]; 876 nM in [5]; above 20 µM in data set [6]; 124 nM in data set [7]; 16.3 µM in data set [8]; 272 nM in [9]. Further, the IC50 in data set [10] is 2460 nM. For the same compound, the Ratio IC50 in the data set listed under Homo sapiens is above 1000. In data set [11], this compound registered a bioavailability of 64%. The AUC(0-t) at 24 h in data set [12] came out at 24100 ng·h/mL. Also, the clearance in data set [13] turned out to be 2.18 mL/min/kg. This compound also came in with a CL free with Rattus norvegicus [14] of 66 mL/min/kg. In data set [15], the Vd amounted to 0.65 L/kg. In data set [16], the half-life was 180 min.
